Test results as given in patent US20230218581A1, “COMPOSITIONS AND METHODS COMPRISING DENDRIMERS AND THERAPEUTIC AGENTS” (The Johns Hopkins University, priority 2020, published 2023).

Columns and labels:
[1] = phase II glucuronidation stability; assay type: in vitro ADME; settings: at 1 hr
Description: (§1) ; FIG. 6C) administration in mice were not optimal (F<5%, AUCbrain/plasma ratio <0.2).

P38d/MAPK13 = target: T1, P38d/MAPK13 (Homo sapiens, UniProt O15264); assay: p38 MAP kinase profiling, P38d; assay type: biochemical; settings: DPTIP tested at 0.001-100 μM
T1 sequence (O15264 1-365): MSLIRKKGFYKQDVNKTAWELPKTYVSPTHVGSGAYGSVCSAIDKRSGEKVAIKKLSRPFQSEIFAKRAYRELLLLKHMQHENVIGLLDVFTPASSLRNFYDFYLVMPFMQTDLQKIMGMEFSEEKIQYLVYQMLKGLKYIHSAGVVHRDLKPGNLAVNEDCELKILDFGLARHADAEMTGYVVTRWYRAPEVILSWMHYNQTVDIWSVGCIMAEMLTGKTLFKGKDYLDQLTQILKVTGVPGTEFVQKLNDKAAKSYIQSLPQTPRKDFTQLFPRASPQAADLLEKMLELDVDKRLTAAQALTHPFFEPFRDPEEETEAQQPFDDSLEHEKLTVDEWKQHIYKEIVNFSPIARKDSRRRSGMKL

[2] = DPTIP pharmacokinetics in mice; assay type: in vivo
Procedure: (§2) The in vitro and in vivo pharmacokinetic properties of DPTIP were evaluated.
as §1

alkaline phosphatase = assay: selectivity: alkaline phosphatase inhibition; assay type: biochemical
[3] = Phase I metabolic stability, mouse liver microsomes; assay type: in vitro ADME; settings: at 1 hr
Procedure: as §2, §1

P38b/MAPK11 = P38b/MAPK11 (Homo sapiens, UniProt Q15759); assay: p38 MAP kinase profiling, P38b; settings: DPTIP tested at 0.001-100 μM
[4] = Phase I metabolic stability, human liver microsomes; assay type: in vitro ADME; settings: at 1 hr
Procedure: as §2, §1

mouse primary glia = assay: exosome release from glial cells, nanoparticle tracking analysis; assay type: cell-based; settings: glia activated by FBS, 0.03-100 μM, two hours after treatment
horizontal brain slices = assay: voltage traces from brain slices on multielectrode array; settings: pre and post 10 μM treatment
[5] = 759 bioassays; cited from earlier work
acid sphingomyelinase = target: T2, acid sphingomyelinase (Homo sapiens, UniProt P17405); assay: selectivity: acid sphingomyelinase inhibition
T2 sequence (P17405 47-631): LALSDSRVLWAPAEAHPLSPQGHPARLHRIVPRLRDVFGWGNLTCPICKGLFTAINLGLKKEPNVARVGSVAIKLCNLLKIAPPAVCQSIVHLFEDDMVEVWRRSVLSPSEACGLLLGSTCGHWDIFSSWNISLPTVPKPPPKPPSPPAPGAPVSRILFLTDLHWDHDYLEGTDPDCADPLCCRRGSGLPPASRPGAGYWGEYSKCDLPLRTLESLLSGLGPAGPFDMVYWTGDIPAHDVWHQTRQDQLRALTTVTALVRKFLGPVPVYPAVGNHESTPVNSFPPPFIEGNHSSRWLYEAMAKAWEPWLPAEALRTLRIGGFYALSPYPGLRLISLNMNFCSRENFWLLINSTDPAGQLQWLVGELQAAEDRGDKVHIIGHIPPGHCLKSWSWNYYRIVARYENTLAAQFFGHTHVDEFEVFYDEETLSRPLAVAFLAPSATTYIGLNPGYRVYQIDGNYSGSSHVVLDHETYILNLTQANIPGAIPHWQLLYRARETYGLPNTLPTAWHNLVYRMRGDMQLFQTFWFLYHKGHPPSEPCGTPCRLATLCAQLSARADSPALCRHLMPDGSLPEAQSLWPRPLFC

P38g = target: T3, P38g (Homo sapiens, UniProt P53778); assay: p38 MAP kinase profiling, P38g; settings: DPTIP tested at 0.001-100 μM
T3 sequence (P53778 1-367): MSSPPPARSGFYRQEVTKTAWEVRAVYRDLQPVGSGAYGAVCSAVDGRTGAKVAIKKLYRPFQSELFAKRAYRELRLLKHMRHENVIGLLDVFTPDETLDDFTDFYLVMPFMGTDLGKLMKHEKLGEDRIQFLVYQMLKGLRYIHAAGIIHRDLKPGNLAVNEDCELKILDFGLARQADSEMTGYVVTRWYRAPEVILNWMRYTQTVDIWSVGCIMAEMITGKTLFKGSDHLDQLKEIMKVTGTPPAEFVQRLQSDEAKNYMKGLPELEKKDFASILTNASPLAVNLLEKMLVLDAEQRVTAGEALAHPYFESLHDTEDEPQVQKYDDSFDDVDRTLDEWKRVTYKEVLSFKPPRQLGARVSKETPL

[6] = DPTIP brain penetration in AD mice (3xTg); assay type: in vivo; settings: mouse, brain/plasma, ip; AD mice (3×Tg), 10 mg/kg i.p.
Description: as §1

[7] = tested on: synaptic proteins (PSD-95, NR2A, GluR1); assay: synaptic protein levels after nSMase2 inhibitor treatment; assay type: in vivo; settings: 10 mg/kg daily; intraperitoneal
P38a/MAPK14 = P38a/MAPK14 (Homo sapiens, UniProt Q16539); assay: p38 MAP kinase profiling, P38a; settings: DPTIP tested at 0.001-100 μM
[8] = tested on: human immunodeficiency virus (HIV); settings: cited from earlier work

P38a/MAPK14, sequence (Q16539 whole entry): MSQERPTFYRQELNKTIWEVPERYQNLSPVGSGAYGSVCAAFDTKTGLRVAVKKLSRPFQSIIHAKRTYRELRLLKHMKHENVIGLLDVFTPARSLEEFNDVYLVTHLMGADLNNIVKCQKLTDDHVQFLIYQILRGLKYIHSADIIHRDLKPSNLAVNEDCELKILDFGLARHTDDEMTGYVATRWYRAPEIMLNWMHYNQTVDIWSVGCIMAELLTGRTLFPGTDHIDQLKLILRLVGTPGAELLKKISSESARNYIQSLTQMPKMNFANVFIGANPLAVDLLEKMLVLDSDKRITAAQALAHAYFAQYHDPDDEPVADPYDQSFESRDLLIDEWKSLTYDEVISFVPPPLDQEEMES
P38b/MAPK11, sequence (Q15759 whole entry): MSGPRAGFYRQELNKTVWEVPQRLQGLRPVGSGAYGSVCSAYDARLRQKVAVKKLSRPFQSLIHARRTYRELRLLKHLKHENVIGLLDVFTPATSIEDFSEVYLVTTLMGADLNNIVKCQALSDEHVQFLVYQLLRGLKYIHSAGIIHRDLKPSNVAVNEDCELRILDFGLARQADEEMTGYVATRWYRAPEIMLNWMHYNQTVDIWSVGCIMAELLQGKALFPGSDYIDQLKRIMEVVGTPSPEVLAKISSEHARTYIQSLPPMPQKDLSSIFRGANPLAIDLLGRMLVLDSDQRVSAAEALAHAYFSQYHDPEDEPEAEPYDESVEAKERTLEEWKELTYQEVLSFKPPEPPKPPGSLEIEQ

| SMILES | % remaining (phase II glucuronidation) [1] [%] | IC50 (M) (P38d/MAPK13) | levels of DPTIP post-administration ([2]; 2-he post-administration) | Kp ([2]; mouse, brain/plasma, 10 mg/kg PO, read-out: AUCbrain/plasma ratio) | clearance ([2]; mouse, plasma, oral, 10 mg/kg, read-out: clearance Clapp) [L/h/kg] | half-life ([2]; mouse, plasma, oral, 10 mg/kg, read-out: plasma half-life t½ (converted)) [min] | bioavailability ([2]; mouse, plasma, 10 mg/kg PO, read-out: oral bioavailability F) [%] | IC50 (alkaline phosphatase) [µM] | % remaining (CYP-dependent oxidation) [3] [%] | IC50 (M) (P38b/MAPK11) | % remaining (CYP-dependent oxidation) [4] [%] | exosome release (mouse primary glia) | differences in voltage traces (neuronal function) (horizontal brain slices) | share of assays with weak activity (μM) [5] [%] | IC50 (acid sphingomyelinase) [µM] | IC50 (M) (P38g) | Kp [6] | effect on PSD95 or NR2A [7] | IC50 (M) (P38a/MAPK14) | dendritic cell-mediated infection of healthy CD4+ T lymphocytes [8] |
| --- | --- | --- | --- | --- | --- | --- | --- | --- | --- | --- | --- | --- | --- | --- | --- | --- | --- | --- | --- | --- |
| COc1cc(-c2nc(-c3cccs3)c(-c3ccccc3)[nH]2)cc(OC)c1O [DPTIP, 2,6-dimethoxy-4-(5-phenyl-4-(thiophen-2-yl)-1H-imidazol-2-yl) phenol] | > 50 | not quantifiable | undetectable | < 0.2 | 5.52 | ~30 | < 5 | > 100 | 100 | not quantifiable | 100 | inhibited exosome release in a dose-dependent manner | No significant differences | < 2.5 | > 100 | not quantifiable | < 0.2 | no significant effect | not quantifiable |  |
| CCCCCCCCCC(=O)N[C@H](CO)C(=O)NC1=CC2(CO2)C(=O)C=C1 (stereo partly drawn) [spiroepoxide] |  |  |  |  |  |  |  |  |  |  |  |  |  |  |  |  |  |  |  | reduced |
| COc1cc(OC)cc(-c2nc(-c3cccs3)c(-c3ccccc3)[nH]2)c1 [des-hydroxyl analog, reference compound] |  |  |  |  |  |  |  |  |  |  |  | no effect |  |  |  |  |  |  |  |  |
